Consider three compounds from patent US11066447B2, “Aureobasidium derivatives and methods of synthesis” (AureoGen Biosciences, Inc., priority 2016, dated 2021).

≈ marks a conversion by molar mass, not a printed value. Read-outs that look alike come from different tables or passages of the source. Numbered stars: 1 amine (or outer) side, 2 acyl side, 3 side chain; on linkers, the order of the positions; unused ones are H or OH. Square brackets hold non-standard residues; d marks the D form. Peptide text beside a SMILES is read from it. X2 = CN1CCN(c2ccc(-c3cccc(C[C@@H](C(=O)[*:2])N(C)[*:1])c3)cc2)CC1; X3 = CN1CCN(c2ccc(-c3cccc(C[C@@H](C(=O)[*:2])N(C)[*:1])c3)cn2)CC1; X11 = CN([C@@H](Cc1cccc(-c2cccc3ncccc23)c1)C(=O)[*:2])[*:1]; Hmp(2R,3S) = CC[C@H](C)[C@@H](O)C(=O)O; NMeVal(β-OH) = CN[C@H](C(=O)O)C(C)(C)O; NMeV = CN[C@H](C(=O)O)C(C)C

Assay [1] has as its system C. neoformans MMX 0634 ATCC 90112. Put plainly: MIC assay (CLSI microdilution). The format is cell-based. To be noted: Cryptococcus neoformans, read-out: MIC. For orientation: Broth dilution looks for growth in wells or tubes with falling amounts of substance.
For assay [2], the system named is C. albicans MMX 2000 ATCC 10231. As to the kind of experiment: MIC assay (CLSI microdilution). It counts as cell-based. To be noted: Candida albicans, ATCC10231, RPMI plus 0.002% Tween-80; read-out: MIC.
Assay [3] relates to A. fumigatus MMX 6781 ATCC MYA-4609. As to the kind of experiment: MIC/MEC assay (CLSI microdilution). It counts as cell-based. To be noted: Aspergillus fumigatus; for MIC: 48 h, RPMI plus 0.002% Tween-80, read-out: MIC; for minimal effective concentration: RPMI plus 0.002% Tween-80, 48 hr. The method in brief: (§1)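 Broth microdilution per CLSI in RPMI-1640 with 0.002% Tween-80; MMX 5280 also run without Tween-80. Test compounds serially diluted two-fold in 95% ethanol, amphotericin B in DMSO (0.06-64 μg/mL). Aspergillus spore inoculum gave approximately 0.2-2.5×10^4 CFU/mL final.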

Another assay relates to A. flavus MMX 5948. Put plainly: MIC/MEC assay (CLSI microdilution). To be noted: Aspergillus flavus, MMX5948, 48 h. It counts as cell-based. In a few lines:
as §1

Assay [4] relates to A. niger MMX 0624 ATCC 16888. As to the kind of experiment: MIC/MEC assay (CLSI microdilution). It counts as cell-based. The method in brief: as §1
The subject of assay [5] is A. fumigatus from Aureogen. Put plainly: MIC/MEC assay (CLSI microdilution). The format is cell-based. The following applies: Aspergillus fumigatus, 48 h; for minimal effective concentration: RPMI plus 0.002% Tween-80; for MIC: RPMI plus 0.002% Tween-80, read-out: MIC. In a few lines: as §1
Assay [6] concerns A. fumigatus MMX 6782 ATCC 13073. Put plainly: MIC/MEC assay (CLSI microdilution). It counts as cell-based. The following applies: Aspergillus fumigatus, ATCC13073, 48 h. In a few lines:
as §1

The test system of a further assay is A. fumigatus MMX 5944. Put plainly: MIC/MEC assay (CLSI microdilution). To be noted: for minimal effective concentration / MIC: Aspergillus fumigatus, MMX5944, 48 h; for MIC: RPMI plus 0.002% Tween-80, read-out: MIC. The format is cell-based. The method in brief:
as §1

For assay [7], the system named is A. fumigatus MMX 5280 ATCC MYA-3626. Put plainly: MIC/MEC assay (CLSI microdilution). It counts as cell-based, Aspergillus fumigatus. In a few lines: as §1
Assay [8] concerns C. albicans MMX 2000 ATCC 10231. As to the kind of experiment: MIC assay (CLSI microdilution). The format is cell-based. The following applies: Candida albicans.
For assay [9], the system named is C. parapsilosis MMX 2323 ATCC 22019. As to the kind of experiment: MIC assay (CLSI microdilution). It counts as cell-based, Candida parapsilosis. In a few lines:
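Broth microdilution MIC testing of Candida parapsilosis ATCC 22019 followed CLSI methods in RPMI-1640, with or without 0.002% Tween-80. Yeast grown 48 hours at 35° C on Sabouraud dextrose agar was suspended to a 0.5 McFarland standard and diluted 1:100 to roughly 0.5-2.5×10^3 CFU/mL. The MIC was the lowest concentration preventing visible growth.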

Where [10] appears, read: ATCC90112, 72 h, 72 hour, RPMI plus 0.002% Tween-80.
Setting [11] is: ATCC90112, RPMI plus 0.002% Tween-80.
[12] abbreviates: RPMI plus 0.002% Tween-80, read-out: MIC.
[13] abbreviates: Aspergillus niger, ATCC16888, 48 h, RPMI plus 0.002% Tween-80, read-out: MEC.
Setting [14] is: Aspergillus niger, ATCC16888, 48 h, RPMI plus 0.002% Tween-80, read-out: MIC.
Setting [15] is: RPMI plus 0.002% Tween-80, 48 hr.
Setting [16] is: RPMI plus 0.002% Tween-80, read-out: MEC.
Where [17] appears, read: Aspergillus fumigatus, 48 h, RPMI plus 0.002% Tween-80, read-out: MEC.
Where [18] appears, read: Aspergillus fumigatus, 48 h, RPMI plus 0.002% Tween-80, read-out: MIC.
The mark [19] stands for this setting: Aspergillus fumigatus, 48 h, Without Tween-80, read-out: MEC.
[20] abbreviates: Aspergillus fumigatus, 48 h, Without Tween-80, read-out: MIC.
[21] abbreviates: ATCC10231, Without Tween-80, read-out: MIC.
The mark [22] stands for this setting: ATCC22019, RPMI plus 0.002% Tween-80, read-out: MIC.
Setting [23] is: ATCC22019, Without Tween-80, read-out: MIC.

One may read the MIC as the lowest concentration that inhibits growth of the organism. As for `CC[C@H](C)[C@@H]1NC(=O)[C@@H]2CCCN2C(=O)[C@H](Cc2cccc(-c3ccc(N4CCN(C)CC4)cc3)c2)N(C)C(=O)[C@H](Cc2ccccc2)NC(=O)[C@H](C(C)C)N(C)C(=O)[C@@H]([C@@H](C)CC)OC(=O)[C@H](C(C)(C)O)N(C)C(=O)[C@H](CC(C)C)NC(=O)[C@H](C(C)C)N(C)C1=O` [Compound 19] (cyclo(F[X2]PI[NMeV]L[NMeVal(β-OH)][Hmp(2R,3S)][NMeV])), the minimal inhibitory concentration (MIC) stood at 0.06 µg/mL in assay [1] (setting [10]); 0.03 µg/mL in assay [1] (setting [11]); 0.015 µg/mL in assay [2]; 0.12 µg/mL in assay [3]; 0.015 µg/mL in the assay on A. flavus MMX 5948 (setting [12]); 0.015 µg/mL in assay [4] (setting [14]). Moreover, the minimum inhibitory concentration (MIC) in assay [4] (setting [15]) is 0.015 µg/mL; in assay [5] it was 0.25 µg/mL; in assay [6] (setting [12]), 0.12 µg/mL; in the assay with A. fumigatus MMX 5944 it was 0.06 µg/mL; in assay [7] (setting [18]) it was 0.25 µg/mL; in assay [7] (setting [20]), 1 µg/mL (≈ 0.784 µM). The MIC in assay [7] (Without Tween-80, 48 hr) came to 2 µg/mL (≈ 1.57 µM); in [8] (setting [21]), 0.5 µg/mL (≈ 0.392 µM); in assay [9] (setting [22]) it was 0.03 µg/mL; in assay [9] (setting [23]), 1 µg/mL (≈ 0.784 µM); in assay [9] (Without Tween-80), 2 µg/mL (≈ 1.57 µM). Moreover, the minimal effective concentration was 0.06 µg/mL in assay [3]; 0.008 µg/mL in the assay on A. flavus MMX 5948 (RPMI plus 0.002% Tween-80); 0.008 µg/mL in assay [4] (setting [13]); 0.06 µg/mL in assay [5]; 0.03 µg/mL in assay [6] (setting [16]); 0.015 µg/mL in the assay with A. fumigatus MMX 5944 (RPMI plus 0.002% Tween-80). The minimal effective concentration in assay [7] (setting [17]) was determined as 0.06 µg/mL; in assay [7] (setting [19]) it was 0.5 µg/mL. Further, the MEC turned out to be 0.015 µg/mL with A. fumigatus MMX 5944 (setting [15]) and 1 µg/mL in assay [7] (Without Tween-80, 48 hr).
Turning to `CC[C@H](C)[C@@H]1NC(=O)[C@@H]2CCCN2C(=O)[C@H](Cc2cccc(-c3ccc(N4CCN(C)CC4)nc3)c2)N(C)C(=O)[C@H](Cc2ccccc2)NC(=O)[C@H](C(C)C)N(C)C(=O)[C@@H]([C@@H](C)CC)OC(=O)[C@H](C(C)(C)O)N(C)C(=O)[C@H](CC(C)C)NC(=O)[C@H](C(C)C)N(C)C1=O` [Compound 20] (cyclo(F[X3]PI[NMeV]L[NMeVal(β-OH)][Hmp(2R,3S)][NMeV])), the minimal inhibitory concentration (MIC) was found to be 0.12 µg/mL in assay [1] (setting [10]); 0.03 µg/mL in [1] (setting [11]); 0.008 µg/mL in [2]; 0.12 µg/mL in assay [3]; 0.015 µg/mL in the assay on A. flavus MMX 5948 (setting [12]); 0.015 µg/mL in assay [4] (setting [14]). The MIC amounted to 0.12 µg/mL in assay [5]; 0.12 µg/mL in assay [6] (setting [12]); 0.12 µg/mL with A. fumigatus MMX 5944; 0.25 µg/mL in assay [7] (setting [18]); 1 µg/mL (≈ 0.783 µM) in assay [7] (setting [20]); 2 µg/mL (≈ 1.57 µM) in assay [7] (Without Tween-80, 48 hr). Moreover, the minimum inhibitory concentration (MIC) in assay [8] (setting [21]) turned out to be 0.5 µg/mL (≈ 0.392 µM); in assay [9] (setting [22]), 0.03 µg/mL; in assay [9] (setting [23]) it was 1 µg/mL (≈ 0.783 µM); in assay [9] (Without Tween-80), 2 µg/mL (≈ 1.57 µM). The minimal effective concentration in assay [3] stood at 0.06 µg/mL; in the assay with A. flavus MMX 5948 (RPMI plus 0.002% Tween-80) it was 0.008 µg/mL; in [4] (setting [13]), 0.008 µg/mL; in assay [5], 0.03 µg/mL; in [6] (setting [16]), 0.03 µg/mL; in the assay with A. fumigatus MMX 5944 (RPMI plus 0.002% Tween-80), 0.015 µg/mL. For the same compound, the minimal effective concentration was 0.06 µg/mL in assay [7] (setting [17]) and 0.5 µg/mL in assay [7] (setting [19]). Besides, in assay [7] (Without Tween-80, 48 hr), the MEC worked out at 1 µg/mL.
As for `CC[C@H](C)[C@@H]1NC(=O)[C@@H]2CCCN2C(=O)[C@H](Cc2cccc(-c3cccc4ncccc34)c2)N(C)C(=O)[C@H](Cc2ccccc2)NC(=O)[C@H](C(C)C)N(C)C(=O)[C@@H]([C@@H](C)CC)OC(=O)[C@H](C(C)(C)O)N(C)C(=O)[C@H](CC(C)C)NC(=O)[C@H](C(C)C)N(C)C1=O` [Compound 28] (cyclo(F[X11]PI[NMeV]L[NMeVal(β-OH)][Hmp(2R,3S)][NMeV])), the minimal inhibitory concentration (MIC) was more than 64 µg/mL in the assay on A. flavus MMX 5948 (RPMI plus 0.002% Tween-80); 0.12 µg/mL in assay [4] (Aspergillus niger, ATCC16888, 48 h, RPMI plus 0.002% Tween-80); more than 64 µg/mL in [6] (RPMI plus 0.002% Tween-80); >64/>64 μg/mL in assay [7] (Without Tween-80, 48 hr); 0.015 µg/mL in [8] (ATCC10231, RPMI plus 0.002% Tween-80); 0.06 µg/mL in [9] (ATCC22019, RPMI plus 0.002% Tween-80). Moreover, the minimum inhibitory concentration (MIC) in assay [9] (ATCC22019, Without Tween-80) amounted to 0.5 µg/mL (≈ 0.407 µM). For the same compound, the minimal effective concentration is 0.12 µg/mL in [4] (Aspergillus niger, ATCC16888, 48 h, read-out: MEC, RPMI plus 0.002% Tween-80); more than 64 µg/mL in assay [6] (read-out: MEC, RPMI plus 0.002% Tween-80); more than 64 µg/mL in assay [7] (Aspergillus fumigatus, 48 h, read-out: MEC, RPMI plus 0.002% Tween-80); more than 64 µg/mL in assay [7] (Aspergillus fumigatus, 48 h, read-out: MEC, Without Tween-80).
